Results on 35 compounds are retold here after patent publication US6534546B1 (Chugai Seiyaku Kabushiki Kaisha, priority 1994, dated 2003).

What is called IC50 is the point on the concentration scale where inhibition reaches its midpoint.

Where a name gives a salt, the structure may show the parent alone.

In the first assay the target is T1, E-cNOS (Type 3) (Bos taurus, UniProt P29473).
T1 construct: the resulting supernatant was used as the crude enzyme sample of E-cNOS; endogenous in cells; host or cells: CPAE (cow pulmonary arterial endothelium cells), 1% Triton X-100 extract, 100,000 x g supernatant
T1 sequence (P29473 2-1205): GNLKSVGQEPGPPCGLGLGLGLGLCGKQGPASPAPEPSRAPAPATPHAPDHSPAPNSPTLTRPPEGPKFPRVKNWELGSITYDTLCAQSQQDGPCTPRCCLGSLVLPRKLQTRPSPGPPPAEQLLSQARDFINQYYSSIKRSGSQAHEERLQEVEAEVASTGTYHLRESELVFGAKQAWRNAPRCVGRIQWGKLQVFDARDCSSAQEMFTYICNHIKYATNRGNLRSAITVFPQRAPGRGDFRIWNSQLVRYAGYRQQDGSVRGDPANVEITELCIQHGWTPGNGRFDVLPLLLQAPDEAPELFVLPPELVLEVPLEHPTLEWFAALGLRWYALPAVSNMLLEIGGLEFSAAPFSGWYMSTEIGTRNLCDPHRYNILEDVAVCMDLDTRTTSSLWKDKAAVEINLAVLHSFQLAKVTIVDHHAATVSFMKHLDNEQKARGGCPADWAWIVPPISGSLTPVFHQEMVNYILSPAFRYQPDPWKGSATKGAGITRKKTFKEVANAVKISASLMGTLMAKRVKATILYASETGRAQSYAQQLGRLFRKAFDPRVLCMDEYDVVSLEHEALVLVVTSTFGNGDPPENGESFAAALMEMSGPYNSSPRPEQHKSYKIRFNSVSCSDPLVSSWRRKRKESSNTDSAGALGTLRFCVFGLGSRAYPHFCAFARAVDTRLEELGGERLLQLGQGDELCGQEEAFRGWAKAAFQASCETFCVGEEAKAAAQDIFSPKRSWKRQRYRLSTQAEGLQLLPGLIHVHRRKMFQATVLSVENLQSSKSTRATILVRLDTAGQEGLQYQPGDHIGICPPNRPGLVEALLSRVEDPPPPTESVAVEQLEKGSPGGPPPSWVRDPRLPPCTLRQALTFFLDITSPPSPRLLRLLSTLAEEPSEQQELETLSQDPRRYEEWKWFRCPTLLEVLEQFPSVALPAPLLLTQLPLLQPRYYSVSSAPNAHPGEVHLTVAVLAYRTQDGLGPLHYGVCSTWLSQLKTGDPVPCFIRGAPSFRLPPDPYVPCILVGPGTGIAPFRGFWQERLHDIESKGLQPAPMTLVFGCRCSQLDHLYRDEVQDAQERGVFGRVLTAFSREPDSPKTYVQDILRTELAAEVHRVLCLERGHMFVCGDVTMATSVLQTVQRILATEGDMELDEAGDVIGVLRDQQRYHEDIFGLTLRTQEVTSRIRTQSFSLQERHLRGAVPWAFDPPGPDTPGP
The assay is described as follows: biochemical.
Settings: not given
In turn, `CCSC(=N)Nc1ccc(CC(C)(C)N)cc1` [Example 193, N-(1,1-dimethyl-2-(4-(S-ethylisothioureido)phenyl)ethyl)amine dihydrochloride] yielded a half-inhibitory concentration (IC50) of 1540 nM.

In turn, `CCN=C(N)Nc1cccc(C2(N)CCCCC2)c1` [Example 234, N-(1-(3-(N′-ethylguanidino)phenyl)cyclohexyl)amine dihydrochloride] registered a half-inhibitory concentration (IC50) of 1170 nM.

Consider `CCSC(=N)Nc1ccc(CCN)c(OC)c1` [Example 482, N-(2-(4-(S-ethylisothioureido)-2-methoxyphenyl)ethyl)amine dihydrochloride], for which 1990 nM corresponded to half-maximal inhibition (IC50).

Compound `CCN=C(N)Nc1ccc(CCN)c(F)c1` [Example 258, N-(2-(4-(N′-ethylguanidino)-2-fluorophenyl)ethyl)amine dihydrochloride] displayed an IC50 of 1090 nM.

Staying with this assay, now noted: mean of one to four independent experiments; CPAE cell crude enzyme; read-out: IC50 value, E-cNOS (Type 3).
For the compound `CCSC(=N)Nc1ccc(C(C)(C)CN)cc1` [Example 185, N-(2-(4-(S-ethylisothioureido)phenyl)-2-methylpropyl)amine dihydrochloride], the IC50 is 3170 nM.

Still in this assay, the particulars now being: mean of one to four independent experiments; crude enzyme, 100 nM L-[3H]arginine; read-out: IC50 value, E-cNOS (Type 3).
Regarding `CN=C(N)Nc1cccc(CN)c1` [Example 367, N-(3-(N′-methylguanidino)phenylmethyl)amine dihydrochloride], the IC50 was determined as 3710 nM.

As for `CCN=C(N)Nc1cccc(C2(N)CCC2)c1` [Example 238, N-(1-(3-(N′-ethylguanidino)phenyl)cyclobutyl)amine dihydrochloride], the IC50 is 1160 nM.

As for `CCN=C(N)Nc1cccc(CCN)c1` [Example 543, N-(3-(N′-ethylguanidino)phenylethyl)amine dihydrochloride], the 50% inhibitory concentration (IC50) was found to be 3120 nM.

Turning to `CSC(=N)Nc1cccc(C2(N)CCCC2)c1` [Example 151, N-(1-(3-(S-methylisothioureido)phenyl)cyclopentyl)amine dihydrochloride], the IC50 is 262 nM.

`N=C(Nc1cccc(C2(N)CCC2)c1)N[N+](=O)[O-]` [Example 173, N-(1-(3-(N′-nitroguanidino)phenyl)cyclobutyl)amine hydrochoride]: the IC50 was determined as 24.1 nM.

`CCSC(=N)Nc1cccc(C2(N)CCC2)c1` [Example 162, N-(1-(3-(S-ethylisothioureido)phenyl)cyclobutyl)amine dihydrochloride]: the IC50 came out at 576 nM.

In the case of `CCNc1ccc(NC(=N)SCC)cc1CN(C(=O)OC(C)(C)C)C(=O)OC(C)(C)C` [Example 458, N-(2-ethylamino-5-(S-ethylisothioureido)phenylmethyl)iminodicarboxylic acid di-t-butyl ester], the IC50 is 4100 nM.

Regarding `CCSC(=N)Nc1ccc(NCc2ccccc2)c(CN)c1` [Example 438, N-(2-benzylamino-5-(S-ethylisothioureido)phenylmethyl)amine trihydrochloride], the IC50 was 6950 nM.

Regarding `CCSC(=N)Nc1ccc(OC)c(CN)c1OC` [Example 298, N-(2,6-dimethoxy-3-(S-ethylisothioureido)phenylmethyl)amine dihydrochloride], the IC50 turned out to be 4140 nM.

In the case of `CCSC(=N)Nc1cccc(CNN)c1` [Example 355, 3-(S-ethylisothioureido)phenylmethylhydrazine trihydrochloride], the IC50 was 662 nM.

Take `CCSC(=N)Nc1cccc(CNC)c1C` [Example 411, N-(3-(S-ethylisothioureido)-2-methylphenylmethyl)methylamine dihydrochloride]: the 50% inhibitory concentration (IC50) is 341 nM.

`CCN=C(N)Nc1cccc(C(C)(C)N)c1` [Example 300, N-(1-(3-(N′-ethylguanidino)phenyl)-1-methylethyl) amine dihydrochloride]: the half-maximal inhibitory concentration (IC50) is 492 nM.

For the compound `CCSC(=N)Nc1cccc(CN(C)C)c1` [Example 372, N-(3-(S-ethylisothioureido)phenylmethyl)dimethylamine], the 50% inhibitory concentration (IC50) stood at 360 nM.

In the case of `CCSC(=N)Nc1cccc(C2(N)CCCC2)c1` [Example 153, N-(1-(3-(S-ethylisothioureido)phenyl)cyclopentyl)amine dihydrochloride], the half-inhibitory concentration (IC50) amounted to 423 nM.

Consider `CCN=C(N)Nc1ccc(CCN)cc1` [Example 528, N-(2-(4-(N′-ethylguanidino)phenyl)ethyl)amine dihydrochloride], for which the half-maximal inhibitory concentration (IC50) is 436 nM.

Consider `CCSC(=N)Nc1cccc(C(C)N)c1` (centres unmarked) [Example 175, N-(1-(3-(S-ethylisothioureido)phenyl)ethyl)amine dihydrochloride], for which the IC50 worked out at 200 nM.

Regarding `CCN=C(N)Nc1cccc(CN(C)C)c1` [Example 374, N-(3-(N′-ethylguanidino)phenylmethyl)dimethylamine dihydrochloride], the IC50 was found to be 1290 nM.

Regarding `CCSC(=N)Nc1ccc(N(C)CC)c(CN)c1` [Example 288, N-(5-(S-ethylisothioureido)-2-(N-ethyl-N-methylamino)phenylmethyl)amine trihydrochloride], the IC50 is 1260 nM.

Turning to `CCN(C)C(=N)Nc1cccc(CN)c1` [Example 305, N-(3-(N′-ethyl-N′-methylguanidino)phenylmethyl)amine dihydrochloride], the concentration for half-maximal inhibition (IC50) was found to be 1710 nM.

Take `CCSC(=N)Nc1ccc(F)c(CN)c1` [Example 317, N-(5-(S-ethylisothioureido)-2-fluorophenylmethyl)amine dihydrochloride]: the IC50 worked out at 239 nM.

On to `CCSC(=N)Nc1ccc(C(CN)C(=O)OC)cc1` (centres unmarked) [Example 226, 3-amino-2-(4-(S-ethylisothioureido)phenyl)propionic acid methyl ester dihydrochloride], for which the half-inhibitory concentration (IC50) worked out at 1440 nM.

Consider `N=C(NCCC[C@H](N)C(=O)O)NC1CC1` [L-CPA, N^G-cyclpropyl-L-arginine, reference compound], for which the IC50 was determined as 987 nM.

With `CCN=C(N)Nc1cccc(CN)c1C` [Example 533, N-(3-(N′-ethylguanidino)-2-methylphenylmethyl)amine dihydrochloride], the IC50 worked out at 3770 nM.

In the case of `CCSC(=N)Nc1cccc(CN)c1Cl` [Example 137, N-(2-chloro-3-(S-ethylisothioureido)phenylmethyl)amine dihydrochloride], the IC50 stood at 485 nM.

With `NC(=N[N+](=O)[O-])Nc1cccc(C2(N)CCCC2)c1` [Example 171, N-(1-(3-(N′-nitroguanidino)phenyl)cyclopentyl)amine hydrochloride], the concentration for half-maximal inhibition (IC50) is 29.2 nM.

Turning to `CCSC(=N)Nc1cccc(C(C)NC)c1` (centres unmarked) [Example 112, N-(1-(3-(S-ethylisothiourido)phenyl)ethyl)methylamine dihydrochloride], the IC50 was determined as 408 nM.

Regarding `CCN=C(N)Nc1ccc(N(C)CC)c(CN)c1` [Example 285, N-(5-(N′-ethylguanidino)-2-(N-ethyl-N-methyl-amino)phenylmethyl)amine trihydrochloride], the IC50 came to 7310 nM.

As to `NCc1cc(NC(N)=N[N+](=O)[O-])ccc1OCc1ccccc1` [Example 341, N-(2-benzyloxy-5-(N′-nitroguanidino)phenylmethyl)amine hydrochloride], the 50% inhibitory concentration (IC50) was 874 nM.

For `CCSC(=N)Nc1cccc(CNC)c1` [Example 47, N-(3-(S-ethylisothioureido)phenylmethyl)methylamine dihydrochloride], the 50% inhibitory concentration (IC50) was determined as 72.9 nM.

As for `CSC(=N)Nc1cccc(C2(N)CCC2)c1` [Example 160, N-(1-(3-(S-methylisothioureido)phenyl)cyclobutyl)amine dihydrochloride], the IC50 was 477 nM.
